Measured values: article PMC12621175, “Scaffold Fusion and SAR Transfer with a Chemical Language Model Generates Novel Liver X Receptor Modulators” (Journal of Medicinal Chemistry, 2025)
Entries after “also recorded” stand apart in the source; their conditions may differ.

Target: T1, PXR (NR1I2) (Homo sapiens, UniProt O75469)
T1 construct: coding for the hinge region, and LBD of the canonical isoform of the respective nuclear receptor; expressed in transfected cells; host or cells: HEK293T
T1 sequence (O75469 146-433 limits assumed): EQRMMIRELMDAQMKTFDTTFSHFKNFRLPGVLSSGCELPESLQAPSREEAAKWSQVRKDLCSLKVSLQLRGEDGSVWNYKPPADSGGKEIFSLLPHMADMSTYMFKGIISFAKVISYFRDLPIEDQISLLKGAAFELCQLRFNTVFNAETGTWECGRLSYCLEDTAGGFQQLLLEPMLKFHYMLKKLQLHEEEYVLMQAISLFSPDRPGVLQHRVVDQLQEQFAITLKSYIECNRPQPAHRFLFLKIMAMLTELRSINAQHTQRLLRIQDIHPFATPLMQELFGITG
Experiment: Gal4-PXR hybrid reporter gene assay (off-target profiling)
Assay type: cell-based
Settings: compared with T0901317
From the text: For the hybrid reporter gene assays, the previously reported Gal4-fusion receptor plasmids pFA-CMV-hRORα-LBD, pFA-CMV-hRORβ-LBD, pFA-CMV-hRORγ-LBD, pFA-CMV-hLXRα-LBD, pFA-CMV-hLXRβ-LBD, pFA-CMV-hFXR-LBD, pFA-CMV-hPXR-LBD, and pFA-CMV-hRXRα-LBD, coding for the hinge region, and LBD of the canonical isoform of the respective nuclear receptor were used. pFR-Luc (Stratagene) was used as the reporter plasmid, and pRL-SV40 (Promega) was used in all assays for the normalization of transfection efficiency and cell growth. pECE-SV40-Gal4-VP16 was a gift from Lea Sistonen (Addgene plasmid #71728). The LXR-responsive reporter ABCA1-pGL3 was used for the full-length reporter gene assay.
The day before transfection, HEK293T cells were seeded in 96-well plates (4 × 10^4 cells/well). Before transfection, the medium was changed to Opti-MEM without any supplements. […] Luminescence was measured with a Spark 10 M luminometer (Tecan Deutschland GmbH). […] EC50/IC50 values and the standard errors thereof were calculated with the mean fold activation values by OriginPro, Version 2025 (OriginLab Corporation, Northampton, MA, USA), fitting a dose–response curve with a variable Hill slope (Levenberg–Marquardt algorithm). […]

CCN(C(=O)c1ccccc1)c1ccc(C(O)(C(F)(F)F)C(F)(F)F)cc1 [Compound 1, N-Ethyl-N-(4-[1,1,1,3,3,3-hexafluoro-2-hydroxypropan-2-yl]phenyl)benzamide]
PXR activity: reduced activity; also recorded: PXR agonism was retained
